Reference: US6919424B2, “Binding peptides for carcinoembryonic antigen (CEA)” (Dyax Corp., priority 2000, dated 2005)
Bridge positions count the residues as written; N and C are the ends. Ends that are not written are not given here. Peptide text beside a SMILES is read from it. * marks the point of attachment. 5FAM = O=C1OC2(c3ccc(O)cc3Oc3cc(O)ccc32)c2ccc(C(=O)*)cc21

Experiments:
H6NA3 = target: T1, H6NA3 (Homo sapiens, UniProt P06731); test: Fluorescence anisotropy direct binding to H6NA3 / NA3
T1 construct: H6NA3, consisting of a hexahistidine leader and the N and A3 domains of CEA, was used
T1 sequence (P06731 35-144 limits assumed): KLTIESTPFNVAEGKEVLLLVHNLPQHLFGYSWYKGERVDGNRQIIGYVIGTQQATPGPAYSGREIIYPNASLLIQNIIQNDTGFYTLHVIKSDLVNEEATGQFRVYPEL
T1 sequence (P06731 501-588 limits assumed): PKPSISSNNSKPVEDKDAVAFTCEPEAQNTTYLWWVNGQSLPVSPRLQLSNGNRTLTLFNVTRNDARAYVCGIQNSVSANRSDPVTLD
Method: (§1) Each peptide was also provided with a C-terminal amide-functional linker useful for immobilizing peptides to various chromatographic substrates: -Ala18-Pro19-Gly20-Gly-Glu-Gly-Gly-Gly-Ser-Lys-CONH2 (SEQ ID NO:28). […] Aliquots of each peptide were fluorescently labeled using NHS-fluorescein reacted with the ε-amino side group of the C-terminal lysine.
Dissociation constants were determined using fluorescence anisotropy, through direct binding measurements and competition experiments. In direct binding assays, the concentration of the fluorescein-labeled peptide is held constant and the concentration of H6NA3 is varied. In the competition experiment, the concentration of the fluorescein-labeled peptide and the H6NA3 target are held constant and the concentration of a competitor (cT84.66, unlabeled) is varied. The change in anisotropy is fit to the appropriate equation via nonlinear regression to obtain the apparent Kd.
Aliquots of each peptide were fluorescently labeled using NHS-fluorescein reacted with the ε-amino side group of the C-terminal lysine.
Dissociation constants were determined using fluorescence anisotropy, through direct binding measurements (see Example 6).
as §1, with “Peptides including the binding domain of the CEA binder Isolates were synthesized by solid-phase synthesis. Each” for “Each”
Dissociation constants were determined using fluorescence anisotropy, through direct binding measurements to either NA-3 or CEA in PBS with 0.01% TWEEN 20. […] Isolate 304A-12-H12, previously isolated from Lib2 and assayed for binding, was analyzed in parallel as a control. […] KD standard error values are calculated from the nonlinear regression (SIGMAPLOT, SPSS Science, Chicago, Ill.).

NA3 = target: T2, NA3 (Homo sapiens, UniProt P06731); test: Phage ELISA with varying amounts of NA3 per well (FIGS. 2, 4, 5); type: binding; conditions: FIG. 2; 100, 50, 10, 5, 1, 0 ng per well
T2 construct: H6NA3, consisting of a hexahistidine leader and the N and A3 domains of CEA, was used
T2 sequence (P06731 35-144 limits assumed): T1 sequence (P06731 35-144 limits assumed)
T2 sequence (P06731 501-588 limits assumed): T1 sequence (P06731 501-588 limits assumed)
Method: The first bar for each sample represents wells each having 100 ng CEA. Successive bars represent 50 ng, 10 ng, 5 ng, 1 ng, and 0 ng CEA per well.
The first bar for each sample represents wells each having 30 ng NA3. Successive bars represent 10 ng, 3 ng, and 0 ng NA3 per well.
Several Isolates gave especially strong ELISA signals and these were tested further.
Several Isolates gave especially strong ELISA signals and these were tested further. […] Isolate 304A-12-H12 (designated DX306) was assayed in parallel as a basis for comparison.

CEA = target: T3, CEA (Homo sapiens, UniProt P06731); test: Fluorescence anisotropy direct binding to CEA; conditions: for binding to CEA (in words): compared with binding to NA3
T3 construct: purchased
T3 sequence (P06731 35-676): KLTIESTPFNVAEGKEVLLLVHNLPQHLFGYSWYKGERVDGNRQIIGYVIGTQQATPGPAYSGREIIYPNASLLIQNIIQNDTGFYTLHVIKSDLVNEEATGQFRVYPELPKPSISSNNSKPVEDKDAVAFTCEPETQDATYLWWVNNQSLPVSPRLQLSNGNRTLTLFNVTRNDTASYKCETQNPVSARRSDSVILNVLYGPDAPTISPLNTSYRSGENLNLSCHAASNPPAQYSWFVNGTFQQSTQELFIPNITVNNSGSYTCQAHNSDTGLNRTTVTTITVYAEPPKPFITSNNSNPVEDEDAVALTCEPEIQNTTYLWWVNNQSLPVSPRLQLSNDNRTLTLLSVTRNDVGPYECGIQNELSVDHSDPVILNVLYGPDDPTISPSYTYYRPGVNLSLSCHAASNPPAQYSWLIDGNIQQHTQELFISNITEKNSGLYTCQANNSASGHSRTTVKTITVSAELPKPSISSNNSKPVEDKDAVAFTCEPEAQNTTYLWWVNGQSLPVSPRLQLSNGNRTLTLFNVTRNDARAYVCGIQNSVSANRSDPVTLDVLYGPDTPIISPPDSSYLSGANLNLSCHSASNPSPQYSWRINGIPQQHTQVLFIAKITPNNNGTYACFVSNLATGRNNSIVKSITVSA
Method: Dissociation constants were determined using fluorescence anisotropy, through direct binding measurements to either NA-3 or CEA in PBS with 0.01% TWEEN 20. In direct binding assays, the concentration of the fluorescein-labeled peptide is held constant and the concentration of NA3 is varied. In the competition experiment, the concentration of the fluorescein-labeled peptide and the NA3 target are held constant and the concentration of competitor peptide (from Isolate 12-H12) is varied. The change in anisotropy is fit to the appropriate equation via nonlinear regression to obtain the apparent Kd. Isolate 304A-12-H12, previously isolated from Lib2 and assayed for binding, was analyzed in parallel as a control. Replicate analyses were run for certain binders and are reported to confirm accuracy and precision of measurements. KD standard error values are calculated from the nonlinear regression (SIGMAPLOT, SPSS Science, Chicago, Ill.).

Molecule | phage ELISA binding profile to varying amounts of NA3 (NA3) | binding to CEA (in words) (CEA) | also measured
CC(C)C[C@H](NC(=O)[C@@H](NC(=O)[C@H](CC(=O)O)NC(=O)[C@@H]1CSSC[C@H](NC(=O)[C@@H](NC(=O)[C@H](Cc2c[nH]c3ccccc23)NC(=O)[C@H](CC(=O)O)NC(=O)[C@@H](N)CO)C(C)C)C(=O)N[C@@H](CCC(=O)O)C(=O)N[C@@H](Cc2ccc(O)cc2)C(=O)N[C@@H](Cc2ccccc2)C(=O)N[C@@H](CCCCN)C(=O)N[C@@H](CC(N)=O)C(=O)N[C@@H](CCC(N)=O)C(=O)N[C@@H](Cc2c[nH]c3ccccc23)C(=O)N[C@@H](Cc2ccccc2)C(=O)N1)[C@@H](C)O)C(=O)N[C@@H](C)C(=O)N1CCC[C@H]1C(=O)NCC(=O)NCC(=O)N[C@@H](CCC(=O)O)C(=O)NCC(=O)NCC(=O)NCC(=O)N[C@@H](CO)C(=O)N[C@@H](CCCCNC(=O)c1ccc2c(c1)C(=O)OC21c2ccc(O)cc2Oc2cc(O)ccc21)C(N)=O [Hybrid H12/A12, DWVCEYFKNQWFCDTL] |  |  | CEA binding characteristics compared with other isolates (H6NA3; direct binding KD, Table 7): comparable to the Isolates obtained from the initial library screen
CC(C)C[C@@H]1NC(=O)[C@H](CC(N)=O)NC(=O)[C@@H](NC(=O)[C@@H](NC(=O)[C@H](Cc2c[nH]c3ccccc23)NC(=O)[C@H](CC(=O)O)NC(=O)[C@@H](N)CO)C(C)C)CSSC[C@@H](C(=O)N[C@@H](CC(=O)O)C(=O)N[C@H](C(=O)N[C@@H](CC(C)C)C(=O)N[C@@H](C)C(=O)N2CCC[C@H]2C(=O)NCC(=O)NCC(=O)N[C@@H](CCC(=O)O)C(=O)NCC(=O)NCC(=O)NCC(=O)N[C@@H](CO)C(=O)N[C@@H](CCCCNC(=O)c2ccc3c(c2)C(=O)OC32c3ccc(O)cc3Oc3cc(O)ccc32)C(N)=O)[C@@H](C)O)NC(=O)[C@H](Cc2ccccc2)NC(=O)[C@H](Cc2c[nH]c3ccccc23)NC(=O)[C@H](CCC(N)=O)NC(=O)[C@H](CC(N)=O)NC(=O)[C@H](CCCCN)NC(=O)[C@H](Cc2ccccc2)NC1=O [Isolate 304A-14-A12, DWVCNLFKNQWFCDTL] | do not drop off so quickly |  | increase in affinity compared to the Isolate G08 peptide (H6NA3; from KD of Table 7 versus Table 3): several fold increase in affinity
CC(C)C[C@H](NC(=O)[C@H](CO)NC(=O)[C@H](CC(N)=O)NC(=O)[C@@H]1CSSC[C@H](NC(=O)[C@@H](NC(=O)[C@H](Cc2c[nH]c3ccccc23)NC(=O)[C@H](CC(=O)O)NC(=O)[C@@H](N)CO)C(C)C)C(=O)N[C@@H](CCC(=O)O)C(=O)N[C@@H](Cc2c[nH]c3ccccc23)C(=O)N[C@@H](CC(C)C)C(=O)N[C@@H](CCCCN)C(=O)N2CCC[C@H]2C(=O)N[C@@H](CCC(N)=O)C(=O)N[C@@H](Cc2c[nH]c3ccccc23)C(=O)N[C@@H](Cc2ccc(O)cc2)C(=O)N1)C(=O)N[C@@H](C)C(=O)N1CCC[C@H]1C(=O)NCC(=O)NCC(=O)N[C@@H](CCC(=O)O)C(=O)NCC(=O)NCC(=O)NCC(=O)N[C@@H](CO)C(=O)N[C@@H](CCCCNC(=O)c1ccc2c(c1)C(=O)OC21c2ccc(O)cc2Oc2cc(O)ccc21)C(N)=O [Isolate 315A-17-B12] (H-SDWVCEWLKPQWYCNSLAPGGEGGGSK(5FAM)-NH2; disulfide 5-14; N-terminus assumed) |  | did not appear to bind CEA | CEA KD (μM) direct binding (CEA; Table 10, commercial CEA, PBS with 0.01% TWEEN 20): (no binding)
CC[C@H](C)[C@@H]1NC(=O)[C@H](Cc2ccccc2)NC(=O)[C@H](CCC(=O)O)NC(=O)[C@@H](NC(=O)[C@@H](NC(=O)[C@H](Cc2c[nH]c3ccccc23)NC(=O)[C@H](CC(=O)O)NC(=O)[C@@H](N)CO)C(C)C)CSSC[C@@H](C(=O)N[C@@H](CC(N)=O)C(=O)N[C@H](C(=O)N[C@@H](CC(C)C)C(=O)N[C@@H](C)C(=O)N2CCC[C@H]2C(=O)NCC(=O)NCC(=O)N[C@@H](CCC(=O)O)C(=O)NCC(=O)NCC(=O)NCC(=O)N[C@@H](CO)C(=O)N[C@@H](CCCCNC(=O)c2ccc3c(c2)C(=O)OC32c3ccc(O)cc3Oc3cc(O)ccc32)C(N)=O)C(C)C)NC(=O)[C@H](Cc2ccccc2)NC(=O)[C@H](Cc2c[nH]c3ccccc23)NC(=O)[C@H](CCC(N)=O)NC(=O)[C@H](CO)NC(=O)[C@H](CCCCN)NC1=O [Isolate 315A-17-G08] (H-SDWVCEFIKSQWFCNVLAPGGEGGGSK(5FAM)-NH2; disulfide 5-14; N-terminus assumed) |  | effectively bound CEA, but not as strongly as they bound NA3 | 
CC[C@H](C)[C@H](NC(=O)[C@H](CC(N)=O)NC(=O)[C@@H]1CSSC[C@H](NC(=O)[C@@H](NC(=O)[C@H](Cc2c[nH]c3ccccc23)NC(=O)[C@H](CC(=O)O)NC(=O)[C@@H](N)CO)C(C)C)C(=O)N[C@@H](CCC(=O)O)C(=O)N[C@@H](Cc2ccccc2)C(=O)N[C@@H](Cc2ccccc2)C(=O)N[C@@H](CCCCN)C(=O)N[C@@H](CC(=O)O)C(=O)N[C@@H](CCC(N)=O)C(=O)N[C@@H](Cc2c[nH]c3ccccc23)C(=O)N[C@@H](Cc2ccccc2)C(=O)N1)C(=O)N[C@@H](CC(C)C)C(=O)N[C@@H](C)C(=O)N1CCC[C@H]1C(=O)NCC(=O)NCC(=O)N[C@@H](CCC(=O)O)C(=O)NCC(=O)NCC(=O)NCC(=O)N[C@@H](CO)C(=O)N[C@@H](CCCCNC(=O)c1ccc2c(c1)C(=O)OC21c2ccc(O)cc2Oc2cc(O)ccc21)C(N)=O [Isolate 315A-18-E02] (H-SDWVCEFFKDQWFCNILAPGGEGGGSK(5FAM)-NH2; disulfide 5-14; N-terminus assumed) |  | effectively bound CEA, but not as strongly as they bound NA3 | 
DWICNLFKNQWFCGPL (CEA binding polypeptide) [Isolate 304A-15-E04] | at least as good as G08 and A07 |  | 
DWVCENKKDQWTCNLL (cysteine pairing not given here) [Isolate A07] | drops off very quickly as the amount of NA3 drops below 50 ng per well |  | 
DWVCNLFKNQWFCDVP (CEA binding polypeptide) [Isolate 304A-14-B02] | at least as good as G08 and A07 |  | 
NWVCNLFKNQWFCNSY (cysteine pairing not given here) [Isolate G08] | drops off very quickly as the amount of NA3 drops below 50 ng per well |  | 
